Entries after “also recorded” stand apart in the source; their conditions may differ.
Key:
[1] = test system: lung transplantation-induced injury; experiment: Pilot clinical study in paired single lung transplantation recipients; format: in vivo, human
From the text: These represent all of the patients who were eligible for single LT and consented for enrollment into the study between Mar. 1, 2018 and Aug. 31, 2018. […] The baseline characteristics, surgical information, medical records during their ICU stay, as well as ventilator parameters, arterial blood gas analysis, and chest X-ray results within 5 days after LT were collected. All of the five donors were enrolled in a voluntary organ donation program and died of accident or disease.
The chest X-ray scores were obtained in the following manner: the heart field was regarded as the center, and the lung field was divided into four quadrants. Non-opacified regions, 0 points; opacified regions limited to 1/4 lung area, 1 point; limited to 2/4 lung area, 2 points; limited to 3/4 lung area, 3 points; in all lung fields, 4 points. Scores were independently collected by a clinician and a radiologist who were blinded for the treatment, and the average was used. If the difference between the two evaluators was greater than 1 point, discussion was conducted to reach a consensus. Hypoxemia index=PaO2/FiO2, measured by arterial blood gas analysis.
In the pilot clinical study, the linear mixed model repeated measures analysis was performed to compare the hypoxemia and X-ray scores over time between two groups accounting for both within-subject correlation and correlation of paired recipients. Time by group interaction was included in the model to examine the difference in trajectory of outcomes between two groups. Linear contrast was used to compare difference at each post-transplant day, and overall mean difference between groups as well. The analysis was conducted with SAS version 9.4 (SAS Inc., Cary, N.C.). The significance was set as p<0.05, two-sided.

[2] = test system: p47^phox phosphorylation at Ser-208; experiment: Western analysis of p47^phox Ser-208 phosphorylation in fMLP-stimulated neutrophils; format: cell-based; settings: fMLP (1 μM) stimulated mouse neutrophils
Description: (§1) Mouse bone marrow neutrophils were isolated from long bones. After lysis of red blood cells (RBCs) with ACK buffer (155 mM NH4Cl, 10 mM KHCO3 and 127 μM EDTA), bone marrow cells were separated on a discontinuous Percoll gradient composed of 81%, 62%, and 45% Percoll. Neutrophils were collected at the interphase between 81% and 62% Percoll, washed in HBSS, and used for assays.

human neutrophils = experiment: ROS production assay in human neutrophils; format: cell-based; settings: 100 nM fMLP
Description: For measurement of extracellular ROS release, isolated neutrophils were placed in the reaction buffer (0.25% BSA in HBSS with Ca^2+ and Mg^2+, 10 mM Isoluminol, 100 u/ml HRP) and stimulated with fMLP or PMA. For measurement of total ROS production, neutrophils were incubated with the reaction buffer (0.25% BSA in HBSS with Ca^2+ and Mg^2+, 10 mM Luminol, 100 u/ml HRP), followed with stimulations. Chemiluminescence was read continuously in a plate reader (Perkin Elmer). For reconstituted ROS production system in COS-7 cells, PMA (2 μM) was used for stimulation.
Buffy coat of human blood samples were subjected to neutrophil enrichment using the EasySep Human Neutrophil Enrichment Kit (Stemceli Technologies) according to manufacturer's protocol. Briefly, the depletion antibody cocktail was mixed with the buffy coat followed by incubation with magnetic particles. The EasySep Magnet was then used to immobilize unwanted cells as the label-free neutrophils were poured into another conical tube. Enriched neutrophils were pelleted and resuspended in an assay buffer (Hanks buffer with Ca^2+ and Mg^2+, 0.25% BSA) for ROS production assay or Western analysis.

p38 phosphorylation = p38 phosphorylation in mouse neutrophils; format: cell-based
Description: as §1

[3] = test system: murine hepatitis virus strain 1 (MHV-1); experiment: Pazopanib IV in the MHV-1 mouse model; format: in vivo, A/J mice
Description: The murine hepatitis virus strain 1 (MHV-1) model was adopted for the pharmacology study. All MHV-1-infected A/J mice developed progressive interstitial edema, neutrophil/macrophage infiltrates, and hyaline membranes, leading to the death of all mice. Two studies have been completed to date. In the first one, mice were administered a 3-dose regimen of the study intervention at 6, 21, and 32 hours after virus inoculation. In the second, mice were administered a 2-dose regimen at 24 and 33 hours after inoculation.
A/J mice, 8 to 10 weeks old, were anaesthetized by Ketamine/Xylazine (100 and 10 mg/kg) and were kept under anesthesia during the whole procedure using Ketamine/Xylazine. After being deeply anesthetized (assessed by applying a noxious stimulus, e.g., toe pinch, and observing no reflex response and no change in either the rate or character of respiration), mice received an intranasal inoculation of 5000 PFU MHV-1 in 20 μL Dulbecco's modified Eagle's medium. After the administration, the mice were monitored until their breathing gradually returned to normal. Then the mice were returned to the recovery cage on the heating pad and monitored for their anesthesia status. […] The green fluorescence of BAL was measured by the plate reader. BAL fluorescence intensities from pazopanib-treated mice were normalized to the intensities from vehicle-control-treated mice wherein higher intensity corresponds to greater permeability.
A/J mice, 8-10 weeks old, were anaesthetized by Ketamine/Xylazine (100 and 10 mg/kg) and were kept under anesthesia during the whole procedure using Ketamine/Xylazine. After being deeply anesthetized (assessed by applying a noxious stimulus, e.g., toe pinch, and observing no reflex response and no change in either the rate or character of respiration), mice received an intranasal inoculation of 6000 PFU MHV-1 in 20 μL Dulbecco's modified Eagle's medium. After the administration, the mice were monitored until their breathing gradually returned to normal. Then the mice were returned to the recovery cage on the heating pad and monitored for their anesthesia status. […]

Cc1ccc(Nc2nccc(N(C)c3ccc4c(C)n(C)nc4c3)n2)cc1S(N)(=O)=O [pazopanib, 5-((4-((2,3-dimethyl-2H-indazol-6-yl)(methyl)amino)pyrimidin-2-yl)amino)-2-methylbenzenesulfonamide]
X-ray opacity score, difference treatment vs control group ([1]; first day, pazopanib 200 mg oral before surgery): 0.6 | X-ray opacity score, difference treatment vs control group ([1]; last day, pazopanib 200 mg oral before surgery): 0.7 | pulmonary edema ([1]; lung transplantation-induced injury): significantly reduced pulmonary edema | X-ray score lower than control group, on average ([1]; overall mean, pazopanib 200 mg oral before surgery): 0.5 point | p47^phox phosphorylation at Ser-208 in neutrophils [2]: inhibit p47^phox phosphorylation at Ser-208; also recorded: inhibits phosphorylation of Ser-208 of p47^phox | ROS production (human neutrophils): increases ROS production | p38 phosphorylation (p38 phosphorylation): did not affect | projected clinical efficacious dose ([3]; assuming 70 kg human): approximately 16.8 mg | human equivalent dose of efficacious dose ([3]; from 3 mg/kg in mouse): 0.24 mg/kg | efficacious dose ([3]; mouse coronavirus-induced lung injury model): approximately 3 mg/kg

Source: US20230026808A1, “COMPOUNDS, COMPOSITIONS, AND METHODS FOR TREATING ISCHEMIA-REPERFUSION INJURY AND/OR LUNG INJURY” (YALE UNIVERSITY, priority 2019, published 2023)
